Assays:
THP1 cells = assay: Combination drug screening, Cell Titer Glo, THP1 cells; details: THP1 cells; for Excess HSA Score: sum score, 10 × 10 dataset, 48 hours;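 on all read-outs here: luminescence read out in 1536-well plates seeded with 500 THP1 cells per well, each drug spanning a 10-point concentration range in the combination matrix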
Excerpt: A smaller concentration indicates higher potency to synergize with Venetoclax. […] The numbers in each cell represent the % response (left) or the Delta Bliss score (right) at each given concentration combination.
A smaller concentration indicates higher potency to synergize with azacitidine. […] The numbers in each cell represent the % response (left) or the Delta Bliss score (right) at each given concentration combination.
(§1) This is a cell line that has the FLT3 ITD mutation but also the FLT3 D835Y kinase domain mutation. […] Excess HSA is a measure of synergy vs. additivity or antagonism, wherein a negative Excess HSA value is indicative of synergy.
Briefly, 10 nL of compounds were acoustically dispensed into 1536-well white polystyrene tissue culture-treated plates with an Echo 550 acoustic liquid handler (Labcyte). MOLM14 (D835Y) or THP1 cells were then added to compound-containing plates at a density of 500-cells/well in 5 μL of medium. A 10-point custom concentration range was used for all listed drugs. […] 48h post compound addition, 3 μL of Cell Titer Glo (Promega) were added to each well and plates were incubated at room temperature for 15 minutes with the stainless-steel lid in place. Luminescence readings were taken using a Viewlux imager (PerkinElmer) with a 2 second exposure time per plate.

MOLM14 (D835Y) cells = assay: Combination drug screening, Cell Titer Glo, MOLM14 (D835Y) cells; details: MOLM14(D835Y) cells; for Excess HSA Score: sum score, listed as compound in combination with Compound 106, 48 hours;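 on all read-outs here: MOLM14 cells with FLT3 ITD plus D835Y, 500 per well in 1536-well plates, 10-point dose ranges, luminescent viability after 48 h, negative Excess HSA indicates synergy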
Description: Briefly, 10 nL of the compound shown below was acoustically dispensed into 1536-well white polystyrene tissue culture-treated plates with an Echo 550 acoustic liquid handler (Labcyte). Cells were then added to compound-containing plate at a density of 500-cells/well in 5 μL of medium. A 6-point or 10-point custom concentration range was used for all listed drugs. Plates were incubated for 48 hours at standard incubator conditions covered by a stainless steel gasketed lid to prevent evaporation. 48h post compound addition, 3 μL of Cell Titer Glo (Promega) were added to each well and plates were incubated at room temperature for 15 minutes with the stainless-steel lid in place. Luminescence readings were taken using a Viewlux imager (PerkinElmer) with a 2 second exposure time per plate.
A smaller concentration indicates higher potency to synergize with Venetoclax.
A smaller concentration indicates higher potency to synergize with azacitidine.
as §1

[1] = listed as compound in combination with CG-806 (a FLT3/BTK inhibitor)
[2] = listed as compound in combination with Compound 45a
[3] = listed as compound in combination with Compound 46a
[4] = listed as compound in combination with Compound 47a
[5] = listed as compound in combination with Compound 48a
[6] = listed as compound in combination with Compound 102
[7] = listed as compound in combination with Compound 106
[8] = listed as compound in combination with Gilteritinib (a FLT3/AXL inhibitor)
[9] = listed as compound in combination with PF-06650833 (an IRAK4 selective inhibitor)
[10] = listed as compound in combination with Quizartinib (a FLT3/Kit/PDGFRa inhibitor)
[11] = listed as compound in combination with emavusertib (CA-4948) (a FLT3/IRAK4 inhibitor)
[12] = combination therapy of CG-806 (a FLT3/BTK inhibitor) and the named additional compound, 110 × 10 dataset
[13] = combination therapy of Compound 45a and the named additional compound, 110 × 10 dataset
[14] = combination therapy of Compound 46a and the named additional compound, 110 × 10 dataset
[15] = combination therapy of Compound 47a and the named additional compound, 110 × 10 dataset
[16] = combination therapy of Compound 48a and the named additional compound, 110 × 10 dataset
[17] = combination therapy of Compound 102 and the named additional compound, 10 × 10 dataset
[18] = combination therapy of Gilteritinib (a FLT3/AXL inhibitor) and the named additional compound, 110 × 10 dataset
[19] = combination therapy of PF-06650833 (an IRAK4 selective inhibitor) and the named additional compound, 110 × 10 dataset
[20] = combination therapy of Quizartinib (a FLT3/Kit/PDGFRa inhibitor) and the named additional compound, 110 × 10 dataset
[21] = combination therapy of emavusertib (CA-4948) (a FLT3/IRAK4 inhibitor) and the named additional compound, 110 × 10 dataset

Structure (SMILES)	Excess HSA Score (THP1 cells; [1])	Excess HSA Score (THP1 cells; [2])	Excess HSA Score (THP1 cells; [3])	Excess HSA Score (THP1 cells; [4])	Excess HSA Score (THP1 cells; [5])	Excess HSA Score (THP1 cells; [6])	Excess HSA Score (THP1 cells; [7])	Excess HSA Score (THP1 cells; [8])	Excess HSA Score (THP1 cells; [9])	Excess HSA Score (THP1 cells; [10])	Excess HSA Score (THP1 cells; [11])	Sum Excess HSA Score (MOLM14 (D835Y) cells; [12])	Sum Excess HSA Score (MOLM14 (D835Y) cells; [13])	Sum Excess HSA Score (MOLM14 (D835Y) cells; [14])	Sum Excess HSA Score (MOLM14 (D835Y) cells; [15])	Sum Excess HSA Score (MOLM14 (D835Y) cells; [16])	Sum Excess HSA Score (MOLM14 (D835Y) cells; [17])	Sum Excess HSA Score (MOLM14 (D835Y) cells; [18])	Sum Excess HSA Score (MOLM14 (D835Y) cells; [19])	Sum Excess HSA Score (MOLM14 (D835Y) cells; [20])	also measured
COc1cc(F)ccc1-c1cc(Nc2cc(CS(C)(=N)=O)ccn2)ncc1F (single isomer, unassigned; (+)) [(+)-BAY-1251152, BAY1251152]	−199.4	−860.7	−263.4	−21.17	97	−265.1	−427.1	−656.6	−758.9	454.7	−51.35	1704	−157.4	−133.4976	−727.7	−215.2	−20.6	362.2497	−386	−511.9	Comments (THP1 cells; combination with PF-06650833): Synergistic (a negative Excess HSA value is indicative of synergy); Sum Excess HSA Score (MOLM14 (D835Y) cells; [21]): 274; Excess HSA Score (MOLM14 (D835Y) cells; 10 × 10 dataset): −865.6
CC(C)[C@@H](CS(=O)(=O)C(C)C)N1C(=O)[C@@](C)(CC(=O)O)C[C@H](c2cccc(Cl)c2)[C@H]1c1ccc(Cl)cc1 [AMG-232, navtemadlin]	917.1	441	229.7	364.2	420.6	−171.2	394.3	24.49	−179	−91.44	125.5	−536.7	−165.5	−654.7	−325.2	224.1	−197.3	−113	−1066	−1109	Sum Excess HSA Score (MOLM14 (D835Y) cells; [21]): −373.7; Excess HSA Score (MOLM14 (D835Y) cells; 10 × 10 dataset): −640.2
NC1(C(=O)N[C@@H](CCO)c2ccc(Cl)cc2)CCN(c2nc[nH]c3nccc2-3)CC1 [AZD-5363, capivasertib]	−189.8	−1027.6539	−276.8	124.8	−732.6	−198.6	−134.3	989.6	−649.7	17.2569	−1144.9723	−2332	−239.9	637.8	−894	−939.6	−439.3	−966.8597	47.56	−1637	Comments (THP1 cells; combination with Compound 48a): Synergistic (a negative Excess HSA value is indicative of synergy); Comments (THP1 cells; combination with emavusertib (CA-4948)): Synergistic (a negative Excess HSA value is indicative of synergy); Comments (synergistic / antagonistic) (MOLM14 (D835Y) cells; [12]): Synergistic (a negative Excess HSA value is indicative of synergy); Sum Excess HSA Score (MOLM14 (D835Y) cells; [21]): −850.1; Excess HSA Score (MOLM14 (D835Y) cells; 10 × 10 dataset): −105.2
COCC1(CO)C(=O)C2CCN1CC2 (stereo not shown) [Eprenetapopt/APR-246, APR-246 (Eprenetapopt)]	300.5	−629.2	603.9	−14.7	−33.1	171.5	268	365.9	−225.6	437.691	482.6	−271.7	284.5	−183.2	366.1	−140.8	−55.14	647.6	−566	−652.9	Sum Excess HSA Score (MOLM14 (D835Y) cells; [21]): 504.1; Excess HSA Score (MOLM14 (D835Y) cells; 10 × 10 dataset): −43.15
N#Cc1ccnc(N2C(=O)CC[C@H]2C(=O)N(c2cncc(F)c2)[C@H](C(=O)NC2CC(F)(F)C2)c2ccccc2Cl)c1 [Ivosidenib, ivosidenib]	93.96	−296.7	−42.9834	−122.1	−0.4511	−215.7606	354.6	338	−152.4	177.8	285	−199.6	259.8	−118.7	218.5	−299.6	−713.3	347.6	−172.4	244.1367	Sum Excess HSA Score (MOLM14 (D835Y) cells; [21]): 35.12; Excess HSA Score (MOLM14 (D835Y) cells; 10 × 10 dataset): 28.0568
Nc1cccc2c1CN(C1CCC(=O)NC1=O)C2=O (stereo not shown) [Lenalidomide]	534	−245.1	533.2	188.9	−51.13	12.2	386.8	355	74.4868	472.5204	1167	141.5	784.7	12.1	868.6	405.4	59.07	527.6728	−429.8	565.7343	Sum Excess HSA Score (MOLM14 (D835Y) cells; [21]): 390.3; Excess HSA Score (MOLM14 (D835Y) cells; 10 × 10 dataset): 754.6
CC(=O)c1c(C)c2cnc(Nc3ccc(N4CCNCC4)cn3)nc2n(C2CCCC2)c1=O [Palbociclib]	−368.3	−912.2	−907.6	−166.9	−166.7	−116.5	−590.5	−826.9	−610	−794.7	190.2	−246	−715.3	−844.8	−616.3	−583.3	−537.2	−576.9	94.98	−1120	Comments (THP1 cells; combination with Quizartinib): Synergistic (a negative Excess HSA value is indicative of synergy); Sum Excess HSA Score (MOLM14 (D835Y) cells; [21]): −557.8; Excess HSA Score (MOLM14 (D835Y) cells; 10 × 10 dataset): −252.8
C[C@]12C=CC(=O)C=C1CC[C@@H]1[C@@H]2[C@@H](O)C[C@@]2(C)[C@H]1CC[C@]2(O)C(=O)CO [Prednisolone, prednisolone]	335.9	438.5	174.9	134.6	511.8	26.91	274.3	−110.9078	−254.8	−81.1	70.05	−218	−106.5	−52.71	−58.8974	−339.3	−260.2	−583.8	−431.6	213.4	Sum Excess HSA Score (MOLM14 (D835Y) cells; [21]): −4.3456; Excess HSA Score (MOLM14 (D835Y) cells; 10 × 10 dataset): −5.273
